Source: PMC6572003 (The Journal of General Physiology, 2019)
Where a chain is given by its changes, count along the chain named. Each block holds one compound with its values, some of them ahead of it.

Columns and labels:
Assay in all cases: two-electrode voltage clamp, Xenopus oocytes, current integral
Format in all cases: cell-based
[1] = target: T1, human P2X4 (Homo sapiens, UniProt Q99571)
T1 sequence (Q99571 1-388): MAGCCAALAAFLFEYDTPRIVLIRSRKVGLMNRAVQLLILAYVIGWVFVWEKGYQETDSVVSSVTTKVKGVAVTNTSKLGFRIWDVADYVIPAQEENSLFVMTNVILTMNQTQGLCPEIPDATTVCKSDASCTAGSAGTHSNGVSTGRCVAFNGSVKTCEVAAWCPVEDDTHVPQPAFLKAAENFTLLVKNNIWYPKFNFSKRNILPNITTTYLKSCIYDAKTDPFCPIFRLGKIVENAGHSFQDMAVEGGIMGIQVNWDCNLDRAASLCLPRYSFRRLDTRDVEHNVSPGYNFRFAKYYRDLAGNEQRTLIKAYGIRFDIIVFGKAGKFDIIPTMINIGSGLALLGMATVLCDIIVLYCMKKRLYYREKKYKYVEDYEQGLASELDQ

[2] = target: T1, human P2X4; conditions: read-out: % inhibition at 250 μM
[3] = target: T2, human P2X4 (Homo sapiens, UniProt Q99571, W50A); conditions: read-out: % inhibition at 250 μM
T2 sequence (Q99571 1-388 W50A): T1 sequence (Q99571 1-388) with W50A

[4] = target: T3, human P2X4 (Homo sapiens, UniProt Q99571, D331A); conditions: read-out: % inhibition at 250 μM
T3 sequence (Q99571 1-388 D331A): T1 sequence (Q99571 1-388) with D331A

[5] = target: T4, human P2X4 (Homo sapiens, UniProt Q99571, E51A); conditions: read-out: % inhibition at 250 μM
T4 sequence (Q99571 1-388 E51A): T1 sequence (Q99571 1-388) with E51A

[6] = target: T1, human P2X4; remark: listed apart in the source
[7] = target: T5, human P2X4 (Homo sapiens, UniProt Q99571, M336A); conditions: read-out: % inhibition at 250 μM
T5 sequence (Q99571 1-388 M336A): T1 sequence (Q99571 1-388) with M336A

- EC50 [1]: 4.8 ± 1.2 µM
SMILES: Nc1ncnc2c1ncn2[C@@H]1O[C@H](COP(=O)(O)OP(=O)(O)OP(=O)(O)O)[C@@H](O)[C@H]1O [ATP]

- inhibition at 250 µM [2]: 73 ± 2%
SMILES: C[C@H](CCC(=O)O)[C@H]1CC[C@H]2[C@@H]3CC[C@@H]4C[C@H](O)CC[C@]4(C)[C@H]3C[C@H](O)[C@]12C [DCA, deoxycholic acid]

- inhibition at 250 µM [2]: 25 ± 9%
SMILES: C[C@H](CCC(=O)NCCS(=O)(=O)O)[C@H]1CC[C@H]2[C@@H]3[C@H](O)C[C@@H]4C[C@H](O)CC[C@]4(C)[C@H]3CC[C@]12C [t-CDCA, tauro-chenodeoxycholic acid]

- inhibition at 250 µM [3]: 63%
- inhibition at 250 µM [4]: 38%
- inhibition at 250 µM [5]: 74%
- IC50 [6]: ~160 µM
- inhibition at 250 µM [7]: 22%
SMILES: C[C@H](CCC(=O)NCCS(=O)(=O)O)[C@H]1CC[C@H]2[C@@H]3CC[C@@H]4C[C@H](O)CC[C@]4(C)[C@H]3C[C@H](O)[C@]12C [t-DCA, tauro-deoxycholic acid]
